{"source": "PubChem BioAssay AID2060623", "about": "(Molecular Pharmacology Branch, DTP, NCI, 2025);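 further: spheroids exposed to compounds for seven days before readout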;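 on viability, T/C: percent of DMSO vehicle control luminescence as 100% viability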", "system": "227483-062-R1-J1-PDC complex spheroids with HUVEC/MSC, viability", "experiment": "Anticancer human tumor 227483-062-R1-J1-PDC patient-derived pancreatic carcinoma cell line growth inhibition [CLK]", "conditions": "for IC50: curve of first compound; for viability, T/C: stronger effect = lower value", "in_short": "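Multi-cell-type spheroids combined patient-derived tumor cells with HUVEC endothelial cells and human mesenchymal stem cells. Paired agents were dosed in half-log steps down from about clinical Cmax, or from 10 microM where Cmax was unknown.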"}
{"smiles": "CCc1c2c(nc3ccc(O)cc13)-c1cc3c(c(=O)n1C2)COC(=O)[C@]3(O)CC", "note": "+ CNC(=O)c1ccc(Nc2nc(OC3CCCC3)c3c(-c4ccc5nc(C)oc5c4)c[nH]c3n2)c(OC)c1", "values": [{"measurement": "IC50", "setting": "second compound 0.0316 µM", "value": 205, "unit": "nM"}, {"measurement": "IC50", "setting": "second compound 0.1 µM", "value": 176, "unit": "nM"}, {"measurement": "IC50", "setting": "second compound 0.316 µM", "value": 64, "unit": "nM"}, {"measurement": "IC50", "setting": "second compound 1 µM", "value": 11.4, "unit": "nM"}, {"measurement": "IC50", "setting": "second compound 3.16 µM", "value": "< 3.16", "unit": "nM"}, {"measurement": "IC50", "setting": "second compound 10 µM", "value": "< 3.16", "unit": "nM"}, {"measurement": "viability, T/C", "setting": "second compound 0.0316 µM, first compound 0.00316 µM", "value": 121, "unit": "%"}, {"measurement": "viability, T/C", "setting": "second compound 0.0316 µM, first compound 0.01 µM", "value": 96.1, "unit": "%"}, {"measurement": "viability, T/C", "setting": "second compound 0.0316 µM, first compound 0.0316 µM", "value": 81.2, "unit": "%"}, {"measurement": "viability, T/C", "setting": "second compound 0.0316 µM, first compound 0.1 µM", "value": 60.5, "unit": "%"}, {"measurement": "viability, T/C", "setting": "second compound 0.0316 µM, first compound 0.316 µM", "value": 41.5, "unit": "%"}, {"measurement": "viability, T/C", "setting": "second compound 0.0316 µM, first compound 1 µM", "value": 32.5, "unit": "%"}, {"measurement": "viability, T/C", "setting": "second compound 0.1 µM, first compound 0.00316 µM", "value": 111, "unit": "%"}, {"measurement": "viability, T/C", "setting": "second compound 0.1 µM, first compound 0.01 µM", "value": 97.1, "unit": "%"}, {"measurement": "viability, T/C", "setting": "second compound 0.1 µM, first compound 0.0316 µM", "value": 69.3, "unit": "%"}, {"measurement": "viability, T/C", "setting": "second compound 0.1 µM, first compound 0.1 µM", "value": 64.4, "unit": "%"}, {"measurement": "viability, T/C", "setting": "second compound 0.1 µM, first compound 0.316 µM", "value": 42.1, "unit": "%"}, {"measurement": "viability, T/C", "setting": "second compound 0.1 µM, first compound 1 µM", "value": 19.8, "unit": "%"}, {"measurement": "viability, T/C", "setting": "second compound 0.316 µM, first compound 0.00316 µM", "value": 65.2, "unit": "%"}, {"measurement": "viability, T/C", "setting": "second compound 0.316 µM, first compound 0.01 µM", "value": 84.3, "unit": "%"}, {"measurement": "viability, T/C", "setting": "second compound 0.316 µM, first compound 0.0316 µM", "value": 62.2, "unit": "%"}, {"measurement": "viability, T/C", "setting": "second compound 0.316 µM, first compound 0.1 µM", "value": 37.8, "unit": "%"}, {"measurement": "viability, T/C", "setting": "second compound 0.316 µM, first compound 0.316 µM", "value": 24.1, "unit": "%"}, {"measurement": "viability, T/C", "setting": "second compound 0.316 µM, first compound 1 µM", "value": 5.82, "unit": "%"}, {"measurement": "viability, T/C", "setting": "second compound 1 µM, first compound 0.00316 µM", "value": 61.2, "unit": "%"}, {"measurement": "viability, T/C", "setting": "second compound 1 µM, first compound 0.01 µM", "value": 54, "unit": "%"}, {"measurement": "viability, T/C", "setting": "second compound 1 µM, first compound 0.0316 µM", "value": 34.1, "unit": "%"}, {"measurement": "viability, T/C", "setting": "second compound 1 µM, first compound 0.1 µM", "value": 19.4, "unit": "%"}, {"measurement": "viability, T/C", "setting": "second compound 1 µM, first compound 0.316 µM", "value": 10.4, "unit": "%"}, {"measurement": "viability, T/C", "setting": "second compound 1 µM, first compound 1 µM", "value": 1.96, "unit": "%"}, {"measurement": "viability, T/C", "setting": "second compound 3.16 µM, first compound 0.00316 µM", "value": 44, "unit": "%"}, {"measurement": "viability, T/C", "setting": "second compound 3.16 µM, first compound 0.01 µM", "value": 35.2, "unit": "%"}, {"measurement": "viability, T/C", "setting": "second compound 3.16 µM, first compound 0.0316 µM", "value": 24.2, "unit": "%"}, {"measurement": "viability, T/C", "setting": "second compound 3.16 µM, first compound 0.1 µM", "value": 12.6, "unit": "%"}, {"measurement": "viability, T/C", "setting": "second compound 3.16 µM, first compound 0.316 µM", "value": 7.58, "unit": "%"}, {"measurement": "viability, T/C", "setting": "second compound 3.16 µM, first compound 1 µM", "value": 2.02, "unit": "%"}, {"measurement": "viability, T/C", "setting": "second compound 10 µM, first compound 0.00316 µM", "value": 33.4, "unit": "%"}, {"measurement": "viability, T/C", "setting": "second compound 10 µM, first compound 0.01 µM", "value": 32.4, "unit": "%"}, {"measurement": "viability, T/C", "setting": "second compound 10 µM, first compound 0.0316 µM", "value": 17.1, "unit": "%"}, {"measurement": "viability, T/C", "setting": "second compound 10 µM, first compound 0.1 µM", "value": 11.4, "unit": "%"}, {"measurement": "viability, T/C", "setting": "second compound 10 µM, first compound 0.316 µM", "value": 6.34, "unit": "%"}, {"measurement": "viability, T/C", "setting": "second compound 10 µM, first compound 1 µM", "value": 2.19, "unit": "%"}]}
